From patent EP2977042B1, “OLOPATADINE FORMULATIONS FOR TOPICAL NASAL ADMINISTRATION” (Novartis AG, priority 2007, dated 2008)
Structures can show the parent of a compound that is named as a salt.

Key:
Type in all cases: physicochemical
[1] = Dissolution rate of olopatadine hydrochloride in a nasal formulation containing 0.01% EDTA and 0.01% BAC, effect of NaCl and Na2HPO4 concentrations
Experimental: The effect of NaCl and Na2HPO4 concentrations on the dissolution rate of olopatadine hydrochloride in a nasal formulation containing 0.01% EDTA and 0.01% BAC was determined. The aqueous solubility of olopatadine HCl decreases with increasing concentration of NaCl. However, increasing phosphate buffer correlates with increased aqueous solubility of olopatadine HCl in the presence of NaCl.

[2] = Visual observation of composition clarity during compounding
Experimental: An exemplary compounding procedure for the nasal composition shown in Table 1 is described as below. • 1. Tare a suitable compounding vessel with magnetic stir bar. Add approximately 80% of the batch weight of purified water. • 2. While stirring, add dibasic sodium phosphate (anhydrous), sodium chloride, edetate disodium, benzalkonium chloride and olopatadine HCl. • 3. Add equivalent to approximately 0.55 g, 6N hydrochloric acid per 100 ml batch. • 4. Allow adequate time between each addition for dissolution of each ingredient • 5. Add purified water to approximately 90% of final batch weight. • 6. Measure pH and adjust, if necessary, to 3.7 with 6N (and/or 1N) hydrochloric acid and 1N sodium hydroxide. • 7. Adjust to final batch weight with purified water (QS). • 8. Measure final pH. • 9. Filter through 0.2 µm filtration membrane. The two compositions shown in Table 2 below were prepared using the procedure described in Example 1 and visual observations of the compositions clarity were made at different points during the compounding procedure. […] In each case, visual observations relating to the composition's clarity were recorded. […] Visual observations of the clarity of each composition were recorded as each composition was prepared.

[3] = Acid-base equilibrium (pKa values) of olopatadine
From the text: Olopatadine has both a carboxylic functional group (pKa1 = 4.18) and a tertiary amino group (pKa2 = 9.79). It exists in different ionic forms depending upon the pH of the solution. Olopatadine exists predominantly as a zwitterion in the pH range between the two pKa values with a negatively-charged carboxylic group and a positively-charged tertiary amino group. The isoelectric point of the olopatadine zwitterion is at pH 6.99. At a pH lower than pKa1, cationic olopatadine (with ionized tertiary amino group) is dominant. At a pH higher than pKa2, anionic olopatadine (with ionized carboxylic group) is dominant.

[4] = Dissolution rate of olopatadine hydrochloride in water, effect of NaCl and Na2HPO4
Experimental: The effect of NaCl on the dissolution rate of olopatadine hydrochloride in water was determined.

Row | Compound | aqueous solubility ([1]; with increasing concentration of NaCl) | aqueous solubility ([1]; with increasing phosphate buffer, in the presence of NaCl) | solubility of 0.665% olopatadine hydrochloride in the tested nasal vehicle ([2]; without a phosphate salt) | dissolution of 0.665% olopatadine hydrochloride in water ([2]; without phosphate buffer, in the presence of 0.7% NaCl, pH as low as 3.6, compounding procedure of Example 1) | pKa1 ([3]; carboxylic functional group) | isoelectric point of the olopatadine zwitterion ([3]; given as pH) | pKa2 ([3]; tertiary amino group) | effect of NaCl on the rate of dissolution ([4]; in water) | effect of addition of Na2HPO4 on dissolution ([4]; in water with NaCl) | time for complete dissolution of 0.6% olopatadine solution ([4]; in water with NaCl, with Na2HPO4) | time for complete dissolution of 0.6% olopatadine solution ([4]; in water with NaCl, without Na2HPO4, assuming the entire amount would eventually dissolve)
1 | CN(C)CC/C=C1/c2ccccc2COc2ccc(CC(=O)O)cc21 [olopatadine HCl, (Z)-11-(3-dimethylaminopropylidene)-6,11-dihydro-dibenz-[b,e]oxepin-2-acetic acid] | decreases | increased | not soluble | did not completely dissolve | – | – | – | – | – | – | –
2 | CN(C)CC/C=C1/c2ccccc2COc2ccc(CC(=O)O)cc21 [olopatadine, Z-11-(3-dimethylaminopropylidene)-6, 11-dihydrodibenz[b,e]oxepine-2-acetic acid] | – | – | – | – | 4.18 | 6.99 | 9.79 | significant reduction | dramatically improved | less than one | at least several hours
